Measurements from ChEMBL document CHEMBL1129063, “Design, synthesis, and biochemical evaluation of N-substituted maleimides as inhibitors of prostaglandin endoperoxide synthases” (J Med Chem, 1996).

Biological target: Cyclooxygenase (Homo sapiens, UniProt P35354+P23219)
Experiment: Inhibitory activity against Prostaglandin G/H synthase

Row | IC50 | Structure (SMILES)
1 | 250 µM | O=C(O)c1ccccc1OCCN1C(=O)C=CC1=O
2 | 140 µM | O=C(O)CCCCCCCCCCCN1C(=O)C=CC1=O
3 | > 200 µM | CC(=O)Oc1cc(N2C(=O)C=CC2=O)ccc1C(=O)O
4 | 12 µM | CCCCCCCCCN1C(=O)C=CC1=O
5 | > 800 µM | O=C(O)CCCCCN1C(=O)C=CC1=O
6 | 570 µM | O=C(O)CCCCCCN1C(=O)C=CC1=O
7 | 14 µM | CCCCCCCCCCN1C(=O)C=CC1=O
8 | 40 µM | O=C(O)CCCCCCCCCCN1C(=O)C=CC1=O
9 | 26 µM | O=C(O)CCCCCCCCN1C(=O)C=CC1=O
10 | 37 µM | O=C(O)CCCCCCCCCN1C(=O)C=CC1=O
11 | 27 µM | O=C(O)c1ccc(CN2C(=O)C=CC2=O)cc1
12 | 50 µM | Cc1ccccc1CN1C(=O)C=CC1=O
13 | 29 µM | CC(=O)Oc1ccc(N2C(=O)C=CC2=O)cc1C(=O)O
